Data reported in US8598132B2, “Glycosylated indolocarbazoles, method for obtaining same and uses thereof” (Universidad de Oviedo, priority 2008, dated 2013).

Assays:
Type in all cases: cell-based
[1] = tested on: A549 (lung); assay: SRB anti-tumour (growth inhibition) assay, A549; settings: Homo sapiens, 48 h exposure, read-out: GI50 (concentration inhibiting 50% of cell growth)
Procedure: (§1) The compounds generated were tested against a series of cell lines from tumours. It quantitatively determined the cell growth and the viability, using a colorimetric assay type, using the reaction with sulforhodamine B (SRB), according to the technique described by Faircloth et al. (Journal of Tissue and Culture Methods 1988, 11, 201-205).
(§2) 96-well microtitre plates are inoculated with cells (5×10^3 cells per well) in aliquots of 195 μl of medium, incubating them during 18 h, in a medium without added compound, to allow the cells to adhere to the surface. Next, the compounds to be tested are added, in samples of 5 μl, at a range of concentrations of 10 to 10^−8 μg/ml, dissolved in DMSO/EtOH (0.2% in PS buffer). After 48 h exposure, the anti-tumour effect is measured using the Sulforhodamine B (SRB) technique: the cells are fixed adding 50 μl of cold […] (50%) (w/v) and it is incubated for 60 min. at 4° C. The plates are washed with deionized water and dried. 100 μl of SRB solution (0.4% w/v in 1% acetic acid) to each well and it is incubated during 10 min. at ambient temperature. The non-bound SRB is eliminated, washing with 1% acetic acid. The plates are air dried and the bound colorant is dissolved with Tris buffer. The optical densities are read in an automatic plate spectrophotometer reader at a wavelength of 490 nm.
(§3) For the compounds of formula (III), (IV), (V), (VI), (VII), (VIII), (IX) and the compounds of formula (XII), (XIII), (XIV), (XV), (XVI) and (XVIII).

[2] = tested on: HT29 (colon); assay: SRB anti-tumour (growth inhibition) assay, HT29; settings: Homo sapiens, HT-29, 48 h exposure, read-out: GI50 (concentration inhibiting 50% of cell growth)
Procedure: as §1, §2, §3

[3] = tested on: MDA-MB-231 (breast); assay: SRB anti-tumour (growth inhibition) assay, MDA-MB-231; settings: Homo sapiens, 48 h exposure, read-out: GI50 (concentration inhibiting 50% of cell growth)
Procedure: as §1, §2, §3

| Compound | GI50 [1] [nM] | GI50 [2] [nM] | GI50 [3] [nM] |
| --- | --- | --- | --- |
| CN[C@@H]1C[C@H]2O[C@@](C)([C@@H]1OC)n1c3ccccc3c3c4c(c5c6ccccc6n2c5c31)C(=O)NC4 [STP, staurosporine, reference compound] | 8 | 76 | 13 |
| CO[C@H]1[C@H](O)[C@@H](O)[C@H](n2c3c(Cl)cccc3c3c4c(c5c6cccc(Cl)c6[nH]c5c32)C(=O)NC4=O)O[C@@H]1CO [RBM, rebeccamycin, reference compound] | 760 | 1550 |  |
